Experimental data from article PMC8277899, “A novel RyR1-selective inhibitor prevents and rescues sudden death in mouse models of malignant hyperthermia and heat stroke” (Nature Communications, 2021).
In brackets after ≈: the same amount, converted by molar mass. Counter-ions that a name gives are not always drawn.

Key:
RyR1 channel = test system: RyR1 channel; design: method as in PMID 31299492; details: HEK293 cell-based assay; read-out: IC50 for inhibiting the RyR1 channel; cited from earlier work
[1] = Thermodynamic solubility in solutions for injection; details: 25 °C; for solubility at 48 h: thermodynamic from solid
[2] = cited from earlier work

For `CCn1cc(C(=O)O)c(=O)c2cc3c(cc21)OCO3` [oxolinic acid, reference compound], the IC50 (RyR1 channel) is listed as 810 nM.

In the case of `CCCCCCCCn1cc(C(=O)O)c(=O)c2cc3c(cc21)OCO3` [Cpd1 sodium salt], the solubility at 48 h ([1]; 5% glucose aqueous solution, saline or isotonic) is reported as 351 ± 14 µg/mL, the Solubility ([1]; Normal saline (0.9% NaCl), 48 h) is reported as 849 ± 58 (4) µg/mL and the solubility at 48 h ([1]; pure water, water) is reported as 1360 ± 220 µg/mL.

In the case of `O=C1CN(/N=C/c2ccc(-c3ccc([N+](=O)[O-])cc3)o2)C(O)=N1` [dantrolene], the solubility at 48 h ([1]; normal saline (0.9% NaCl), saline or isotonic) is given as 25.7 ± 2.1 µg/mL (≈ 81.8 µM), the “plasma half-life (t1/2)” value [2] is given as 12 h and the plasma half-life ([2]; in humans after intravenous injection) is given as 10 to 12 h.
